Data from patent publication US20230123334A1, “AMINO LIPID COMPOUND, PREPARATION METHOD THEREFOR, AND APPLICATION THEREOF” (SHENZHEN SHENXIN BIOTECHNOLOGY CO., LTD., priority 2020, published 2023).

Experiments:
[1] = tested on: HEK293 cells; assay: Preliminary screening as DNA vectors, GFP transfection of HEK293 cells; format: cell-based; details: HEK293 cells; lipid/DOPE liposome with 75 ng plasmid DNA (psin-EGFP-IRES-Puro); number of cells expressing GFP divided by total number of nuclei (Hoechst)
Procedure, shortened: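 Lipid + DOPE liposomes (NaOAc, pH 5.6) complexed w/ 75 ng psin-EGFP-IRES-Puro, 30 min RT; added to 3-5×10^4 HEK293/well, 37° C. Hoechst 0.2 μg/mL at 20-24 h, imaged after further 20-24 h. Efficiency = GFP+ cells / total nuclei.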

[2] = tested on: HEK293 cells; assay: Preliminary screening as mRNA vectors, EGFP mRNA transfection of HEK293 cells; format: cell-based; details: HEK293 cells, 96-well plates, EGFP mRNA 50 ng per well; percentage of GFP fluorescent cells relative to total number of cells (Hoechst)
Procedure, shortened: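 Each well of HEK293 cells received 50 ng of EGFP mRNA. Efficiency was expressed as percent GFP-expressing cells over Hoechst-defined total cell number.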

Compound | Absolute DNA transfection efficiency in HEK293 cells [1] | Absolute mRNA transfection efficiency in HEK293 cells [2]
CCCCCCCCCCCCNc1nc(NCCCCCCCC)nc(NCCN2CCN(C)CC2)n1 [Compound N8N12D5] | 0.6% | 0.9%
CCCCCCCCCCCCCCCCCCSc1nc(NCCCN2CCN(C)CC2)nc(SCCCCCCCC)n1 [Compound S8S18D9] | 17.7% | 28.1%
CCCCCCCCCCCCNc1nc(NCCN2CCN(C)CC2)nc(N(CCCCCCCCCCCC)CCCCCCCCCCCC)n1 [N12^2N12D5] | 0.5% | 2.2%
CCCCCCCCCCCCCCCSc1nc(NCCCN2CCN(C)CC2)nc(SCCCCCCCCCCC)n1 [Compound S11S15D9] | 1.8% | 3.6%
CCCCCCCCCCCNc1nc(NCCCCCCC)nc(NCCN2CCCCC2)n1 [Compound N7N11D4] | 1.4% | 0.1%
CCCCCCCCCCCNc1nc(NCCCCCCCC)nc(NCCCN2CCOCC2)n1 [Compound N8N11D8] | 0.0% | 0.1%
CCCCCCCCCCCCCCSc1nc(NCCCN(C)C)nc(SCCCCCCCCCC)n1 [Compound S10S14D6] | 26.9% | 48.6%
CCCCCCCCCCCCCCCCCCNc1nc(NCCCCCCCCCCCCCCCCCC)nc(NCCCN2CCN(C)CC2)n1 [Compound N18N18D9] | 0.0% | 0.0%
CCCCCCCCCCCCCCCCNc1nc(NCCCCCCCCC)nc(NCCN2CCOCC2)n1 [Compound N9N16D2] | 0.0% | 0.7%
CCCCCCCCCCCNc1nc(NCCCCCC)nc(NCCN(CC)CC)n1 [Compound N6N11D7] | 0.0% | 0.0%
CCCCCCCCCCCCNc1nc(NCCCCCCCC)nc(NCCCN(C)C)n1 [Compound N8N12D6] | 0.4% | 0.1%
CCCCCCCCCCCCCNc1nc(NCCCCCCCCCCCCC)nc(NCCCN2CCOCC2)n1 [Compound N13N13D8] | 1.4% | 0.3%
CCCCCCCCCNc1nc(NCCCCCC)nc(NCCN2CCOCC2)n1 [Compound N6N9D2] | 0.0% | 0.0%
CCCCCCCCCCCCCCCNc1nc(NCCCCCCCCCCCC)nc(NCCCN2CCN(C)CC2)n1 [Compound N12N15D9] | 1.5% | 0.9%
CCCCCCCCCCCCSc1nc(NCCCN(C)C)nc(SCCCCCCCCCCC)n1 [Compound S11S12D6] | 5.2% | 21.5%
CCCCCCCCCCCCCCCCCCNc1nc(NCCN2CCN(C)CC2)nc(N(CCCCCCCCCCCC)CCCCCCCCCCCC)n1 [N18^2N12D5] | 0.7% | 0.7%
CCCCCCCCCCCCCCCNc1nc(NCCCCCCCCCCCCCCC)nc(NCC2CCN(C)CC2)n1 [Compound N15N15D10] | 1.1% | 4.2%
CCCCCCCCCCCCCCSc1nc(NCCCN2CCN(C)CC2)nc(SCCCCCCCCCCCC)n1 [Compound S12S14D9] | 0.8% | 2.5%
CCCCCCCCNc1nc(NCCCCCC)nc(NCC2CCN(C)CC2)n1 [Compound N6N8D10] | 0.0% | 0.0%
CCCCCCCCCCCCNc1nc(NCCCCCCCCCCC)nc(NCCN2CCOCC2)n1 [Compound N11N12D2] | 0.5% | 0.5%
CCCCCCCCCCCCCCCCCCSc1nc(NCC2CCN(C)CC2)nc(SCCCCCCCCC)n1 [Compound S9S18D10] | 7.0% | 43.6%
CCCCCCCCNc1nc(NCCCCCCC)nc(NCCCN2CCOCC2)n1 [Compound N7N8D8] | 0.0% | 0.0%
CCCCCCCCCCCCCCSc1nc(NCCCN2CCOCC2)nc(SCCCCCCCCCCCCCC)n1 [Compound S14S14D8] | 0.0% | 0.0%
CCCCCCCCCCCCCCCNc1nc(NCCCCCCCCCCCCCCC)nc(NCCN(CC)CC)n1 [Compound N15N15D7] | 0.5% | 0.0%

Compound | Absolute DNA transfection efficiency in HEK293 cells [1] | Absolute mRNA transfection efficiency in HEK293 cells [2]
CCCCCCCCCCCCCCCCCCNc1nc(NCCCCCCCC)nc(NCCCN2CCOCC2)n1 [Compound N8N18D8] | 1.3% | 2.8%
CCCCCCCCCCCCNc1nc(NCCCCCCCCCCCC)nc(NCCCN(C)C)n1 [Compound N12N12D6] | 0.3% | 0.8%
CCCCCCCCCCCCN(CCCCCCCCCCCC)c1nc(NCCCCCCCCC)nc(NCCCN2CCOCC2)n1 [N9^2N12D8] | 0.0% | 0.3%
CCCCCCCCCCCCNc1nc(NCCCCCCCCCCC)nc(NCCCN(C)C)n1 [Compound N11N12D6] | 0.5% | 8.1%
CCCCCCCCCCCCCCCSc1nc(NCCCN(C)C)nc(SCCCCCCCCCCCCCCC)n1 [Compound S15S15D6] | 0.4% | 0.9%
CCCCCCCCCCCCCCCSc1nc(NCCCN2CCN(C)CC2)nc(SCCCCCCCCCCCCCC)n1 [Compound S14S15D9] | 0.0% | 0.0%
CCCCCCCCCCCCCCCCCCNc1nc(NCCCCCC)nc(NCC2CCN(C)CC2)n1 [Compound N6N18D10] | 0.4% | 0.1%
CCCCCCCCCCCCCNc1nc(NCCCCCCCCCCCC)nc(NCCN2CCOCC2)n1 [Compound N12N13D2] | 0.1% | 0.0%
CCCCCCCCCCCCCCCNc1nc(NCCCCCCCCCCCC)nc(NCC2CCN(C)CC2)n1 [Compound N12N15D10] | 0.7% | 1.2%
CCCCCCCCCCCCCCCCCCNc1nc(NCCCCCCCCCCCCCCCC)nc(NCCN2CCN(C)CC2)n1 [Compound N16N18D5] | 1.1% | 0.0%
CCCCCCCCCCCCCCCCCCNc1nc(NCCCCCCCCCCCC)nc(NCCCN2CCOCC2)n1 [Compound N12N18D8] | 1.5% | 0.5%
CCCCCCCCCCCCCCCSc1nc(NCCN2CCN(C)CC2)nc(SCCCCCCCCCCCCCC)n1 [Compound S14S15D5] | 0.0% | 0.0%
CCCCCCCCCCCCCCCCNc1nc(NCCCCCCCCC)nc(NCC2CCN(C)CC2)n1 [Compound N9N16D10] | 4.8% | 1.2%
CCCCCCCCCCCCCCCNc1nc(NCCCCCCCCC)nc(NCCN(C)C)n1 [Compound N9N15D1] | 0.5% | 2.2%
CCCCCCCCCCCCCCCCSc1nc(NCCN(C)C)nc(SCCCCCCCCCCCCCCC)n1 [Compound S15S16D1] | 1.7% | 0.7%
CCCCCCCCCCCCCNc1nc(NCCCCCCCCCCC)nc(NCC2CCN(C)CC2)n1 [Compound N11N13D10] | 0.0% | 0.0%
CCCCCCCCCCCCCCCNc1nc(NCCCCCC)nc(NCCN(C)C)n1 [Compound N6N15D1] | 0.0% | 0.0%
CCCCCCCCNc1nc(NCCCCCCC)nc(NCCCN2CCN(C)CC2)n1 [Compound N7N8D9] | 0.7% | 0.2%
CCCCCCCCCCCCCCCCCCSc1nc(NCCN(CC)CC)nc(SCCCCCCCCCC)n1 [Compound S10S18D7] | 9.2% | 0.3%
CCCCCCCCCCCSc1nc(NCCN2CCCC2)nc(SCCCCCCCCCC)n1 [Compound S10S11D3] | 6.8% | 4.4%
CCCCCCCCCCCCN(CCCCCCCCCCCC)c1nc(NCCCCCCC)nc(NCCN2CCCCC2)n1 [N7^2N12D4] | 1.2% | 3.7%
CCCCCCCCCCCNc1nc(NCCCCCCC)nc(NCCN2CCN(C)CC2)n1 [Compound N7N11D5] | 0.6% | 0.1%
CCCCCCCCCCCCCCCCCCSc1nc(NCCN2CCOCC2)nc(SCCCCCCCCCCCC)n1 [Compound S12S18D2] | 0.0% | 0.0%
